Reference: patent EP1320377B1, “HLA BINDING PEPTIDES AND THEIR USES” (Epimmune Inc., priority 2000, dated 2011)

Biological target: B*0702 (Homo sapiens, UniProt P01889)
Experiment: Class I molecular binding assay (peptide binding to purified HLA class I molecule)
Details: binding value of the peptide for HLA allele B*0702; kind of value and unit not given

- B*0702: 0.1800
Sequence: SPALNKMFBQI [Peptide 34.0397]
